# Patent publication US6495603B1, “Anti-inflammatory eye drop” (Wakamoto Pharmaceutical Co., Ltd., priority 1998, dated 2002)
# What was measured:
# [1] = system: Chang human conjunctival cell strains (ATCC CCL-20.2); test: Cell toxicity, viable cell number by β-hexosaminidase activity, conjunctival cells; type: cell-based; conditions: concentration for survival rate of 50%
# Description: (§1) There were used SV40 immortalized human corneal epithelial cell strains (Araki-Sasaki et al., IOVS, 1995, 36:614-621) as the corneal cells and Chang human conjunctival cell strains (ATCC CCL-20.2) as the conjunctival cells.
# (§2) These cells were cultured in 96-well plate to a confluent of 30 to 50% and then each test substance stepwise diluted with the culture medium was added to the foregoing culture medium to thus carry out cultivation at 37° C. After completion of the cultivation, the plate was washed with PBS(−) and the number of residual cells was determined in terms of the β-hexosaminidase activity.
# (§3) A group treated with only the solvent, which was used for dissolving the test substance was defined to be a negative control, the viable cell number observed for the control was assumed to be 100%, a dose-correlation curve was prepared on the basis of the viable cell number observed at each concentration of test substance and the concentration of each test substance required for achieving the survival rate of 50% (EC50) was determined from the curve and it was defined to be the toxicity value thereof.
# [2] = system: SV40 immortalized human corneal epithelial cell strains; test: Cell toxicity, viable cell number by β-hexosaminidase activity, corneal epithelial cells; type: cell-based; conditions: concentration for survival rate of 50%
# Description: as §1, §2, §3
# [3] = system: Japanese white male rabbits; test: Uveitis induced by LPS in rabbits (aqueous humor PGE2 and protein); type: in vivo, rabbit; conditions: for Inhibition Rate (PGE2 Content) / Inhibition Rate (Protein Content): LPS uveitis, vs control
# Description: In this Test Example, groups of Japanese white male rabbits each having a body weight ranging from 1.7 to 2.4 kg were used, wherein each group consisted of 12 to 16 eyes.
# The lipopolysaccharide (LPS) (055: B5 type, available from Sigma Company) derived from E. coli was administered to these rabbits through the auricular veins in a dose of 1.25 μg/kg to thus induce uveitis. After 4 hours from the administration of LPS, the rabbits were killed by anesthetization with an excess of pentobarbital sodium (available from Tokyo Chemical Industry Co., Ltd.) and the anterior chamber fluid was collected.
# The PGE2 concentration and the amount of proteins present in the collected aqueous humor were determined according to the same methods used in Example 1.
# In this respect, each test substance was dropped in the both eyes of these animals prior to one hour from the administration of LPS at a dose of about 60 μL/eye. […]
# [4] = system: Japanese white rabbits; test: Inflammation in anterior of white rabbit after anterior chamber puncture (secondary aqueous humor PGE2 and protein); type: in vivo; conditions: for Inhibition Rate (PGE2 Content) / Inhibition Rate (Protein Content): anterior chamber puncture, vs control; for PGE2 Content / Protein Content: secondary aqueous humor after anterior chamber puncture
# Description: In this Test Example, there were used Japanese white rabbits (available from Japan Medical Animal Source Laboratory) each having a body weight ranging from 1.8 to 2.4 kg and they were divided into groups each consisting of 6 to 7 animals.
# After administration of 250 U/kg of heparin (available from Takeda Chemical Industries, Ltd.) to these rabbits through the ear veins thereof, a test substance was dropped in the both eyes in an amount of about 60 μl. After 45 minutes from the dropping of the substance in the eyes, these animals were locally anesthetized with benoxil eye drop (available from Santen Pharmaceutical Co., Ltd.) and then whole of the anterior chamber fluid was collected using a 27G injection needle. This anterior chamber fluid was defined to be a primary aqueous humor. After 90 minutes from the collection of the aqueous humor, the rabbits were killed by anesthetization with an excess of pentobarbital sodium and the aqueous humor was again collected. This anterior chamber fluid was defined to be a secondary aqueous humor.
# The concentration of prostaglandin E2 (hereunder referred to as “PGE2”) and the amount of proteins present in the collected secondary aqueous humor were determined and they were used as indications of inflammation. After pre-treatment of 100 μl of the aqueous humor using a Bond Elute C18 column, the concentration of PGE2 was determined using Biotrack PGE2 EIA system (available from Amersham Company). On the other hand, the amount of proteins was determined according to the Lowry method using bovine serum albumin (available from Nakarai Co., Ltd.) as a reference protein.
# Etodolac as a test substance was dissolved in castor oil specified in the pharmacopoeia to concentrations of 0.5% and 5%. Meloxicam was diluted with physiological saline prior to use.
# [5] = 24 h, exposure 24 hours, Table 4
# [6] = 24 h, exposure time 24 hr, Table 5
# [7] = 48 h, exposure time 48 hr, Table 5
# [8] = aqueous humor 4 hours after LPS, 0.1% eye drop one hour before LPS
# [9] = aqueous humor 4 hours after LPS, 0.5% eye drop one hour before LPS
# [10] = aqueous humor 4 hours after LPS, 1.0% eye drop one hour before LPS
compound,measurement,setting,value
O=C(O)Cc1ccccc1Nc1c(Cl)cccc1Cl [Diclofenac Sodium],EC50,[1]; [5],130 µM
same,EC50,[1]; [6],230 µM
same,EC50,[1]; [7],220 µM
same,EC50,[2]; [5],300 µM
same,EC50,[2]; [6],630 µM
same,EC50,[2]; [7],230 µM
COc1ccc2c(c1)c(CC(=O)O)c(C)n2C(=O)c1ccc(Cl)cc1 [Indometacin],EC50,[1]; [5],370 µM
same,EC50,[2]; [5],570 µM
"CS(=O)(=O)Nc1ccc([N+](=O)[O-])cc1OC1CCCCC1 [NS-398, N-(2-(cyclohexyloxy)-4-nitrophenyl) methanesulfonamide]",Inhibition Rate (PGE2 Content),[3]; 0.5% in castor oil,65.9%
same,Inhibition Rate (PGE2 Content),[3]; 5.0% in castor oil,59.4%
same,PGE2 Content,"[3]; aqueous humor 4 hours after LPS 1.25 μg/kg, 0.5% in castor oil, dropped one hour before LPS",4553 ± 118.6 pg/mL
same,PGE2 Content,"[3]; aqueous humor 4 hours after LPS 1.25 μg/kg, 5.0% in castor oil, dropped one hour before LPS",542.8 ± 79.8 pg/mL
"Cc1cnc(NC(=O)C2=C(O)c3ccccc3S(=O)(=O)N2C)s1 [Meloxicam, 4-hydroxy-2-methyl-N-(5-methyl-2-thiazolyl)-2H-1,2-benzo-thiazine-3-carboxamide 1,1-dioxide]",Inhibition Rate (PGE2 Content),[4]; 0.1% eye drop,75.0%
same,Inhibition Rate (Protein Content),[4]; 0.1% eye drop,29.3%
same,Inhibition Rate (PGE2 Content),[4]; 0.5% eye drop,90.7%
same,Inhibition Rate (Protein Content),[4]; 0.5% eye drop,52.2%
same,Inhibition Rate (PGE2 Content),[4]; 1.0% eye drop,94.2%
same,Inhibition Rate (Protein Content),[4]; 1.0% eye drop,47.6%
same,PGE2 Content,[4]; 0.1% eye drop,680.6 pg/mL
same,Protein Content,"[4]; 0.1% eye drop, about 60 μl both eyes",16.2 ± 1.9 mg/mL
same,PGE2 Content,[4]; 0.5% eye drop,253.5 pg/mL
same,Protein Content,[4]; 0.5% eye drop,11.0 ± 1.5 mg/mL
same,PGE2 Content,[4]; 1.0% eye drop,158.3 pg/mL
same,Protein Content,[4]; 1.0% eye drop,12.0 ± 2.1 mg/mL
same,EC50,[1]; [6],970 µM
same,EC50,[1]; [7],380 µM
same,Inhibition Rate (PGE2 Content),[3]; 0.1% eye drop,55.9%
same,Inhibition Rate (Protein Content),[3]; 0.1% eye drop,33.8%
same,Inhibition Rate (PGE2 Content),[3]; 0.5% eye drop,68.8%
same,Inhibition Rate (PGE2 Content),[3]; 1.0% eye drop,63.1%
same,Inhibition Rate (Protein Content),[3]; 1.0% eye drop,49.4%
same,PGE2 Content,[3]; [8],1102.8 pg/mL
same,Protein Content,[3]; [8],16.0 ± 1.9 mg/mL
same,PGE2 Content,[3]; [9],780.9 pg/mL
same,Protein Content,[3]; [9],14.3 ± 2.6 mg/mL
same,PGE2 Content,[3]; [10],922.8 pg/mL
same,Protein Content,[3]; [10],12.2 ± 1.8 mg/mL
same,EC50,[2]; [6],> 1000 µM
same,EC50,[2]; [7],840 µM
"CCc1cccc2c3c([nH]c12)C(CC)(CC(=O)O)OCC3 (stereo not shown) [Etodolac, 1,8-diethyl-1,3,4,9-tetrahydropyrano [3,4-b] indole-1-acetic acid]",Effect on the PGE2 content increased by the anterior chamber puncture,"[4]; aqueous humor, 0.5% and 5% in castor oil, FIG. 1",inhibited the increase
same,Effect on the protein content increased by the anterior chamber puncture,"[4]; aqueous humor, 0.5% and 5% in castor oil, FIG. 2",inhibited the increase
same,EC50,[1]; [5],800 µM
same,EC50,[2]; [5],1000 µM
